EC50 data for 23 compounds are collected here from US20260374754A1, “N-((ISOQUINOLIN-6-YL)METHYL)-1H-PYRAZOLE-4-CARBOXAMIDE DERIVATIVES AS PLASMA KALLIKREIN INHIBITORS FOR THE TREATMENT OF HEREDITARY ANGIODEMA” (Takeda Pharmaceutical Company Limited, priority 2022, published 2026).

pEC50: −log10 of the molar value.

As usually defined, the pEC50 is the EC50 on a negative log10 scale, so that one unit is a factor of ten.

This assay has as its target human activated kallikrein enzyme (Homo sapiens, UniProt P03952). Put plainly: Inhibition of human activated plasma kallikrein, fluorogenic PFR-AMC substrate, 500 pM enzyme format. Format: biochemical. Conditions: 500 pM activated kallikrein; 300 μM PFR-AMC; 30 min preincubation; 10 min room temperature; pH 7.5; read-out: Primary Dose Response Assay: Average EC50. An outline of the steps: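 Using fluorogenic PFR-AMC at 300 μM, cleavage by 500 pM human activated kallikrein ran 10 min at room temperature, read at 460 nm emission (380 nm excitation). Enzyme and compounds were first preincubated 30 min in 20 mM Tris pH 7.5, 150 mM NaCl, 1 mM EDTA, 0.1% PEG-400, 0.1% Triton X-100.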

Sequence of human activated kallikrein enzyme (P03952 391-638 limits assumed): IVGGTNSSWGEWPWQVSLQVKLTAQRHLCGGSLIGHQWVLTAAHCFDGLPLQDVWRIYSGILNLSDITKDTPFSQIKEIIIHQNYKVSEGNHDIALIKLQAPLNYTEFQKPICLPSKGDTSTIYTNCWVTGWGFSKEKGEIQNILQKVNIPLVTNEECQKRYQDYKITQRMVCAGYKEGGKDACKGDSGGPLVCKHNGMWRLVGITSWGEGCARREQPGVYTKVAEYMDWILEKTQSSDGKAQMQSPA
Sequence of human activated kallikrein enzyme (P03952 20-390 partner limits assumed): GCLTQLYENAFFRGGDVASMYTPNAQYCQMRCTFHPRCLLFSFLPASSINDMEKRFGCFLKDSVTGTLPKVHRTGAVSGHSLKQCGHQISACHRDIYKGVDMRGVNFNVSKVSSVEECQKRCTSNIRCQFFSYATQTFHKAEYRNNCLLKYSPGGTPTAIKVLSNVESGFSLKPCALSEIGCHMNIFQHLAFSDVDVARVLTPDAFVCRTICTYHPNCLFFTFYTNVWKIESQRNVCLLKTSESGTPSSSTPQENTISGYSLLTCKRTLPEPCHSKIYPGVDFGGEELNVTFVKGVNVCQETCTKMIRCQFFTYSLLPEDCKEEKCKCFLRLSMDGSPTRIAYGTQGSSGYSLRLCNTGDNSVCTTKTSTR

In the case of `Cc1cc2c(N)nccc2c(C)c1CNc1cc(OCc2ccc(Cn3ccccc3=O)cc2)cnn1` [Example 436, 1-(4-(((6-(((1-amino-5,7-dimethylisoquinolin-6-yl)methyl)amino)pyridazin-4-yl)oxy)methyl)benzyl)pyridin-2(1H)-one], the pEC50 is greater than 9.00.

Consider `Cc1cc2c(N)nccc2c(C)c1CNc1cc(OCc2ccc(Cn3cccc(C4CC4)c3=O)cc2)cnn1` [Example 437, 1-(4-(((6-(((1-amino-5,7-dimethylisoquinolin-6-yl)methyl)amino)pyridazin-4-yl)oxy)methyl)benzyl)-3-cyclopropylpyridin-2(1H)-one], for which the negative-log EC50 (pEC50) is greater than 9.00.

Consider `Cc1cc2c(N)nccc2c(C)c1CNc1cc(OCc2ccc(-n3ccccc3=O)cc2)cnn1` [Example 438, 1-(4-(((6-(((1-amino-5,7-dimethylisoquinolin-6-yl)methyl)amino)pyridazin-4-yl)oxy)methyl)phenyl)pyridin-2(1H)-one], for which the pEC50 was 8.00 to 9.00.

As to `Cc1cc2c(N)nccc2c(C)c1CNc1cc(OCc2ccc(Cc3ccn(C)n3)cc2)cnn1` [Example 439, 5,7-dimethyl-6-(((5-((4-((1-methyl-1H-pyrazol-3-yl)methyl)benzyl)oxy)pyridazin-3-yl)amino)methyl)isoquinolin-1-amine], the pEC50 is greater than 9.00.

Consider `Cc1cc2c(N)nccc2c(C)c1CNc1cc(OCc2ccc(Cc3cccn(C)c3=O)cc2)cnn1` [Example 440, 3-(4-(((6-(((1-amino-5,7-dimethylisoquinolin-6-yl)methyl)amino)pyridazin-4-yl)oxy)methyl)benzyl)-1-methylpyridin-2(1H)-one], for which the pEC50 was greater than 9.00.

As for `Cc1cc2c(N)nccc2c(C)c1CNc1cc(OCc2ccc(-n3ccnc3)cc2)cnn1` [Example 441, 6-(((5-((4-(1H-imidazol-1-yl)benzyl)oxy)pyridazin-3-yl)amino)methyl)-5,7-dimethylisoquinolin-1-amine], the pEC50 was 8.00 to 9.00.

Take `Cc1cc2c(N)nccc2c(C)c1CNc1cc(OCc2cnn(-c3ccccc3)c2)cnn1` [Example 442, 5,7-dimethyl-6-(((5-((1-phenyl-1H-pyrazol-4-yl)methoxy)pyridazin-3-yl)amino)methyl)isoquinolin-1-amine]: the pEC50 was 8.00 to 9.00.

`Cc1cc2c(N)nccc2c(C)c1CNc1cc(OCc2ccccc2)cnn1` [Example 443, 6-(((5-(benzyloxy)pyridazin-3-yl)amino)methyl)-5,7-dimethylisoquinolin-1-amine]: the pEC50 was 6.00 to 7.00.

As to `Cc1cc2c(N)nccc2c(C)c1CNc1cc(OCc2ccc(Cc3cccn4ccnc34)cc2)cnn1` [Example 444, 6-(((5-((4-(imidazo[1,2-a]pyridin-8-ylmethyl)benzyl)oxy)pyridazin-3-yl)amino)methyl)-5,7-dimethylisoquinolin-1-amine], the pEC50 is greater than 9.00.

In the case of `Cc1cc2c(N)nccc2c(C)c1CNc1cc(OCc2ccc(Cn3cccn3)nc2)cnn1` [Example 445, 6-(((5-((6-((1H-pyrazol-1-yl)methyl)pyridin-3-yl)methoxy)pyridazin-3-yl)amino)methyl)-5,7-dimethylisoquinolin-1-amine], the pEC50 was 6.00 to 7.00.

With `Cc1cc2c(N)nccc2c(C)c1CNc1cc(OCc2ccc(Cn3cccn3)cn2)cnn1` [Example 446, 6-(((5-((5-((1H-pyrazol-1-yl)methyl)pyridin-2-yl)methoxy)pyridazin-3-yl)amino)methyl)-5,7-dimethylisoquinolin-1-amine], the pEC50 is greater than 9.00.

Take `Cc1cc2c(N)nccc2c(C)c1CNc1cc(NCc2ccc(Cn3cccn3)cc2)cnn1` [Example 447, N^5-(4-((1H-pyrazol-1-yl)methyl)benzyl)-N^3-((1-amino-5,7-dimethylisoquinolin-6-yl)methyl)pyridazine-3,5-diamine]: the pEC50 was greater than 9.00.

As to `Cc1cc2c(N)nccc2c(C)c1CNc1cc(NCc2ccccc2)cnn1` [Example 448, N^3-((1-amino-5,7-dimethylisoquinolin-6-yl)methyl)-N5-benzylpyridazine-3,5-diamine], the pEC50 was 6.00 to 7.00.

For the compound `Cc1cc2c(N)nccc2c(C)c1CNc1cc(OCc2ccccc2)ncn1` [Example 449, 6-(((6-(benzyloxy)pyrimidin-4-yl)amino)methyl)-5,7-dimethylisoquinolin-1-amine], the pEC50 was less than 6.00.

For the compound `Cc1cc2c(N)nccc2c(C)c1CNc1cc(OCc2ccc(Cn3cccn3)cc2)c(C(F)(F)F)nn1` [Example 450, 6-(((5-((4-((1H-pyrazol-1-yl)methyl)benzyl)oxy)-6-(trifluoromethyl)pyridazin-3-yl)amino)methyl)-5,7-dimethylisoquinolin-1-amine], the pEC50 is 8.00 to 9.00.

Turning to `Cc1cc2c(N)nccc2c(C)c1CNc1cc(NCc2ccc3ncccc3c2)c(C(N)=O)nn1` [Example 452, 6-(((1-amino-5,7-dimethylisoquinolin-6-yl)methyl)amino)-4-((quinolin-6-ylmethyl)amino)pyridazine-3-carboxamide], the pEC50 is 7.00 to 8.00.

In the case of `Cc1cc2c(N)nccc2c(C)c1CNc1cc(C(O)c2cn3cc(C4CC4)ccc3n2)ccn1` (centres unmarked) [Example 453, (2-(((1-amino-5,7-dimethylisoquinolin-6-yl)methyl)amino)pyridin-4-yl)(6-cyclopropylimidazo[1,2-a]pyridin-2-yl)methanol], the pEC50 is greater than 9.00.

On to `Cc1cc2c(N)nccc2c(C)c1CNc1cc(OCc2cn3cc(C4CC4)ccc3n2)nc(C(=O)O)n1` [Example 487, 4-(((1-amino-5,7-dimethylisoquinolin-6-yl)methyl)amino)-6-((6-cyclopropylimidazo[1,2-a]pyridin-2-yl)methoxy)pyrimidine-2-carboxylic acid], for which the pEC50 is greater than 9.00.

Turning to `Cc1cc2c(N)nccc2c(C)c1CNc1cc(OCc2cn3cc(C4CC4)cnc3n2)nc(C(=O)O)n1` [Example 488, 4-(((1-amino-5,7-dimethylisoquinolin-6-yl)methyl)amino)-6-((6-cyclopropylimidazo[1,2-a]pyrimidin-2-yl)methoxy)pyrimidine-2-carboxylic acid], the pEC50 was greater than 9.00.

`CCOC(=O)c1nc(NCc2c(C)cc3c(N)nccc3c2C)cc(OCc2cn3cc(C4CC4)cnc3n2)n1` [Example 489, ethyl 4-(((1-amino-5,7-dimethylisoquinolin-6-yl)methyl)amino)-6-((6-cyclopropylimidazo[1,2-a]pyrimidin-2-yl)methoxy)pyrimidine-2-carboxylate]: the pEC50 was greater than 9.00.

In the case of `Cc1cc2c(N)nccc2c(C)c1CNS(=O)(=O)c1cnn(Cc2cn3cc(C4CC4)ccc3n2)c1` [Example 490, N-((1-amino-5,7-dimethylisoquinolin-6-yl)methyl)-1-((6-cyclopropylimidazo[1,2-a]pyridin-2-yl)methyl)-1H-pyrazole-4-sulfonamide], the pEC50 was 7.00 to 8.00.

Take `Cc1cc2c(N)nccc2c(C)c1CNS(=O)(=O)c1cn(Cc2cn3cc(C4CC4)ccc3n2)nn1` [Example 491, N-((1-amino-5,7-dimethylisoquinolin-6-yl)methyl)-1-((6-cyclopropylimidazo[1,2-a]pyridin-2-yl)methyl)-1H-1,2,3-triazole-4-sulfonamide]: the pEC50 is 7.00 to 8.00.

For the compound `Cc1cc2c(N)nccc2c(C)c1CNc1nccc(OCc2cn3cc(C4CC4)ccc3n2)n1` [Example 492, 6-(((4-((6-cyclopropylimidazo[1,2-a]pyridin-2-yl)methoxy)pyrimidin-2-yl)amino)methyl)-5,7-dimethylisoquinolin-1-amine], the pEC50 is 8.00 to 9.00.
